Tests used:
newborn rats = conditions: cited from earlier work
glutathione reductase = test: Measurement of glutathione reductase activity in cultured rat lens; format: cell-based, SD rats; conditions: 72 hours, 37° C.
Protocol: The test animals were 6 to 8 week old male SD rats (supplier: Nippon SLC). The animals were sacrificed by suffocation by inhalation of carbon dioxide. Both eyeballs of each test animal were then excised. An incision was made in the sclera on the back of the eyeballs, and then the vitreous body and iris-ciliary body were removed, followed by removal of the lens.
Each lens obtained in this manner was cultured by immersing it in 3 ml of the culture solution described below in a 6-well tissue culture plate (FALCON). Culturing was performed for 72 hours in a CO2 incubator maintained at 37° C. and 100% humidity in the presence of 5% CO2 (in air).
Medium 199 (Gibco) containing penicillin (20 units/ml) and streptomycin (20 μg/ml) was used as the control culture solution.
The test culture solution contained the test compound added to the above-mentioned culture solution. The cultured lenses were placed in frozen storage until the time of the test.
After homogenising each frozen rat lens in 2 ml of distilled water, the resulting homogenate was separated by centrifugation (10,000 g, 20 minutes) after which the resulting supernatant was used as the enzyme sample.
400 μl of enzyme sample were added to 0.6 ml of phosphate buffer containing 1 mM oxidized glutathione (GSSG) and 100 μM NADPH. After the mixture had reacted at 25° C. for 6 minutes, the absorbance of the reaction mixture (at 340 nm: i.e. OD340nm) was measured. The difference (ΔOD340nm) between the OD340nm value before reaction and the OD340nm value after completion of the reaction was used as an indicator of glutathione reductase activity.

Structure (SMILES): O=C(O)CCCCC1CCSS1 (centres unmarked) [lipoic acid]
- activity of glutathione reductase (newborn rats; lipoic acid in addition to BSO): does not increase
- cataract formation (newborn rats; lipoic acid together with BSO): suppressed
- total glutathione (oxidized and reduced glutathione) level (newborn rats; lipoic acid together with BSO): decrease is prevented

Structure (SMILES): CS(=O)(=O)NC(=O)CCCCC1CCSS1 (centres unmarked) [Example 2, N-[5-(1,2-Dithiolan-3-yl)pentanoyl]methanesulfonamide]
- ΔOD340 nm /min/g protein (indicator of glutathione reductase activity) (glutathione reductase; 10 μM in lens culture solution): 3.24 ± 0.10 ΔOD340 nm /min/g protein
- ΔOD340 nm /min/g protein (indicator of glutathione reductase activity) (glutathione reductase; 30 μM in lens culture solution): 3.20 ± 0.09 ΔOD340 nm /min/g protein
- ΔOD340 nm /min/g protein (indicator of glutathione reductase activity) (glutathione reductase; 100 μM in lens culture solution, p < 0.05): 3.59 ± 0.05 ΔOD340 nm /min/g protein
- ΔOD340 nm /min/g protein (indicator of glutathione reductase activity) (glutathione reductase; 300 μM in lens culture solution, p < 0.05): 3.70 ± 0.08 ΔOD340 nm /min/g protein
- ΔOD340 nm /min/g protein (indicator of glutathione reductase activity) (glutathione reductase; 1000 μM in lens culture solution, p < 0.05): 4.16 ± 0.18 ΔOD340 nm /min/g protein
